Test results from ChEMBL document CHEMBL6078717, “An overview of GPX4-targeting TPDs for cancer therapy” (Bioorg Med Chem, 2025).

Legend:
[1] = Antiproliferative activity against HEK293T cells assessed as reduction in cell growth; format: toxicity, cell-based, HEK-293T; conditions: human
[2] = PROTAC activity at GPX4/E3 ligase in human HT-1080 cells assessed as degradation of GPX4 protein incubated for 24 hrs by Western blotting analysis; format: cell-based; conditions: HT-1080, 24 h
Calu-1 = experiment: Antiproliferative activity against human Calu-1 cells assessed as inhibition of cell growth incubated for 24 hrs by MTT assay; format: functional, cell-based; conditions: Calu-1, 24 h
DU-145 = experiment: Antiproliferative activity against human DU-145 cells assessed as cell growth inhibition by SRB assay; format: functional, cell-based
786-0 = experiment: Antiproliferative activity against human 786-0 cells assessed as cell growth inhibition measured for 48 hrs by SRB assay; format: functional, cell-based; conditions: 786-0, 48 h
MDA-MB-231 = experiment: Antiproliferative activity against human MDA-MB-231 cells assessed as reduction in cell viability after 48 hrs by SRB assay; format: functional, cell-based; conditions: MDA-MB-231, 48 h

Structure (SMILES) | IC50 [1] [nM] | DC50 [2] [nM] | IC50 (Calu-1) [nM] | IC50 (DU-145) [nM] | IC50 (786-0) [nM] | IC50 (MDA-MB-231) [nM]
COC(=O)c1ccc([C@H]2c3[nH]c4ccccc4c3C[C@H](C(=O)OC)N2C(=O)CCl)cc1 | 310 |  |  |  |  | 
O=C1CCC(N2C(=O)c3cccc(NCCCCN(C(=O)CCl)C(C(=O)NCc4ccccc4)c4cccs4)c3C2=O)C(=O)N1 (centres undefined) |  | 130 | 860 |  |  | 
O=C1CCC(N2C(=O)c3cccc(NCCOCCOCCOCCN(C(=O)CCl)C(C(=O)NCc4ccccc4)c4cccs4)c3C2=O)C(=O)N1 (centres undefined) |  | 210 | 2930 |  |  | 
Cc1onc(C(=O)N2CCN(C(c3ccc(Cl)cc3)c3ccc(OCCOCCOCC(=O)NCC45CC6CC(CC(C6)C4)C5)cc3)CC2)c1[N+](=O)[O-] (centres undefined) |  | 57 |  | 92 | 125 | 31
